From article PMC8103899, “Allyl Isothiocyanate: A TAS2R38 Receptor-Dependent Immune Modulator at the Interface Between Personalized Medicine and Nutrition” (Frontiers in Immunology, 2021)

Key:
TNF-α = TNF-α secretion of PBMC (ELISA), LPS stimulated or unstimulated; format: cell-based, human
Description: PBMC (1x10^6/mL) cultured in RPMI 1640 medium supplemented with 10% heat-inactivated fetal calf serum, 2 mM L-glutamine, 100 U/ml penicillin/streptomycin were stimulated with 0.5 ng/ml CD3/CD28 MAbs and exposed to the test compounds. After 24 h, supernatants were collected and stored at -80°C until analysis using the human MACSplex cytokine 12-kit (Miltenyi Biotec GmbH, Bergisch Gladbach, Germany) according to manufacturer’s protocol to quantify cytokine secretion. Supernatants were also used for photometric quantification by the human TNF-alpha or IL-1β ELISA Ready-Set-Go kit from eBIoscience (Frankfurt, Germany) according to the manufacturer’s instructions.
(§1) Figure 5 In bacterial LPS stimulated PBMC, AITC triggers MAPK activation and TNF-α inhibition in dependence of the TAS2R38 genotype. PBMC were exposed to AITC or 0.01% DMSO (SC) together with 100 pg/mL LPS. (A) Representative immunoblots are given. Densitometric analysis was done to quantify the immunoblots using Quantity One software (Bio-Rad, Munich, Germany) and normalized against β-actin, which was used as loading control. (B, C) Cytokine secretion at 3 and 24 h was analyzed using ELISA kits. (D) Time kinetic of TNF-α mRNA expression. Results are means + SD and given as fold of the solvent control. Results were calculated relative to the corresponding solvent control (SC, 0.01% DMSO). Significance of difference was determined compared to the respective SC by one-way ANOVA, *p < 0.05, **p < 0.01.

p-ERK1/2, p-p38, p-Akt = experiment: Immunoblotting of MAPK and AKT phosphorylation in PBMC; format: cell-based, human
Description: Proteins of interest were analyzed by immunoblotting as described before ([36]). Densitometric analysis was done to quantify the immunoblots using Quantity One software (Bio-Rad, Munich, Germany) and normalized against β-actin.
Figure 4 AITC mediates MAPK down-stream signaling in dependence of the TAS2R38 haplotype. (A, B) PBMC were treated with test compounds for the indicated time points and pellets were collected for protein expression analysis. Representative immunoblots are given. Densitometric analysis was done to quantify the immunoblots using Quantity One software (Bio-Rad, Munich, Germany) and normalized against β-actin, which was used as loading control. The graphs show phosphorylated ERK1/2, p-38 or Akt, protein levels relative to control as quantified by pixel densitometry. Bars are mean + SD; *p < 0.05, **p < 0.01 (n ≥ 2). Significance of difference was calculated relative to the corresponding solvent control determined by one-way ANOVA (SC, 0.01% DMSO).
as §1

TAS2R38 receptor [1] = molecular target: TAS2R38 receptor (Homo sapiens, UniProt P59533, A262V); experiment: Calcium flux assay in human PBMC (flow cytometry, Fluo-4 AM); conditions: AVI/AVI, 100 µM AITC
TAS2R38 receptor [2] = molecular target: T1, TAS2R38 receptor (Homo sapiens, UniProt P59533, A49P/I296V); experiment: as above
T1 sequence (P59533 1-333 A49P/I296V): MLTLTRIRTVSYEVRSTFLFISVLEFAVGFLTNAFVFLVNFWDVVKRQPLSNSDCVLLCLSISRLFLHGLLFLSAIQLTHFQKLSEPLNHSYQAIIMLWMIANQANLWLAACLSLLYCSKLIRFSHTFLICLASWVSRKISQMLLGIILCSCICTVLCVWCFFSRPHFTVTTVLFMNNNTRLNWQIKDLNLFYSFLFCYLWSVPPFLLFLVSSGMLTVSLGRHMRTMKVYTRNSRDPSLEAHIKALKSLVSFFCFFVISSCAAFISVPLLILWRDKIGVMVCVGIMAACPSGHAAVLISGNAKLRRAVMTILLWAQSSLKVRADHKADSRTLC

TAS2R38 receptor [3] = experiment: as above; conditions: PAV/AVI

Sequence of TAS2R38 receptor (Homo sapiens, UniProt P59533, A262V) (P59533 whole entry A262V): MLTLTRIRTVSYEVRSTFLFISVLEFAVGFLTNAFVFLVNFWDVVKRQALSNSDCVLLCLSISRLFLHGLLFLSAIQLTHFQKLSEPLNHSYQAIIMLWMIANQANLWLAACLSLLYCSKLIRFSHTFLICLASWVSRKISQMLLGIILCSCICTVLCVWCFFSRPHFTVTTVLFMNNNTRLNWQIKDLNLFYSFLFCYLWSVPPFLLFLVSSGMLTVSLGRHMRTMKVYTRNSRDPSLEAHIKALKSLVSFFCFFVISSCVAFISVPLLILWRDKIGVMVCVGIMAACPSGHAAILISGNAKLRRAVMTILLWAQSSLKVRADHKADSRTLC

With `C=CCN=C=S` [AITC, allyl isothiocyanate] the TNF-α release (TNF-α; AITC exposure without inflammatory stimulus (data not shown)) was “no change”, the inhibition at 3 µM (TNF-α; Homo sapiens, 3 h LPS activated PBMC, 3 µM AITC, dependent on TAS2R38 receptor functionality, read-out: peak inhibition of TNF-α secretion) was 54% and the TNF-α secretion (TNF-α; LPS, prolonged incubation 24 h, PAV/PAV group, all tested concentrations) was “abolished the effect”. The “p-ERK, p-p38 and p-Akt phosphorylation” value (p-ERK1/2, p-p38, p-Akt; 5 min, 100 pg/mL LPS and AITC, PAV/PAV subjects) was “upregulation”, the “p-ERK1/2 and p-p38 phosphorylation” value (p-ERK1/2, p-p38, p-Akt; PBMC, PAV/PAV group, in contrast to AVI/AVI) was “quick activation (5 min. AITC exposure), followed by dephosphorylation” and the p-Akt phosphorylation (p-ERK1/2, p-p38, p-Akt; PBMC, in dependence of the TAS2R38 genotype) was “same activation/inactivation pattern”. For the same compound, the calcium influx (TAS2R38 receptor [1]; lymphocytes) was 24%, the “calcium flux (statistically significant)” value (TAS2R38 receptor [1]; monocytes) was 20% and the calcium influx (TAS2R38 receptor [2]; PAV/PAV cells, 0.01 µM AITC (increase between 0.01 to 1 µM)) was 28%. The calcium influx (TAS2R38 receptor [2]; PAV/PAV cells, 1 µM AITC (increase between 0.01 to 1 µM)) was 35%, the calcium influx (TAS2R38 receptor [2]; PAV/PAV cells, 10 µM AITC (increase between 10-100 µM)) was 45% and the calcium influx (TAS2R38 receptor [2]; PAV/PAV cells, 100 µM AITC (increase between 10-100 µM)) was 72%. For the same compound, the calcium influx (TAS2R38 receptor [2]; lymphocytes, PAV/PAV, 1 µM AITC) was 25%, the “calcium flux (statistically significant)” value (TAS2R38 receptor [2]; monocytes, PAV/PAV, 0.01 µM AITC) was 22% and the threshold concentration (TAS2R38 receptor [2]; monocytes, calcium flux) was 10 nM. The calcium influx (TAS2R38 receptor [3]; lymphocytes, 100 µM AITC) was 21% and the “calcium flux (statistically significant)” value (TAS2R38 receptor [3]; monocytes, 10 µM AITC) was 18%.
